CC(=O)Oc1ccccc1C(=O)Nc1ncc([N+](=O)[O-])s1
solubility (mole fraction)
Conditions	273.15 K	278.15 K	283.15 K	288.15 K	293.15 K	298.15 K	303.15 K	308.15 K	313.15 K
in 1,4-dioxane	–	–	–	0.0102	0.0131	0.0167	0.0207	0.0254	0.0311
in 2-butanone	0.00334	0.00496	0.0066	0.00859	0.0107	0.0131	0.0158	0.0191	0.0229
in DMF	0.0637	0.0672	0.0711	0.0751	0.0797	0.0846	0.0901	0.097	0.104
in NMP	0.0878	0.09	0.0925	0.0953	0.098	0.101	0.105	0.109	0.113
in acetonitrile	0.00082	0.000924	0.00103	0.00115	0.00127	0.00141	0.00158	0.00178	0.00201
in ethanol	0.000117	0.000147	0.000179	0.000211	0.000246	0.000285	0.000331	0.000385	0.00045
in ethyl acetate	0.00185	0.00206	0.00229	0.00252	0.00276	0.003	0.0033	0.00362	0.00399
in isopropanol	0.000162	0.000202	0.000243	0.000287	0.000333	0.000383	0.000436	0.000502	0.00058
in methanol	0.000103	0.000126	0.00015	0.000177	0.000202	0.00023	0.000261	0.000298	0.000334
in n-butanol	0.000176	0.000214	0.000257	0.000303	0.000354	0.000408	0.000471	0.000541	0.000617
in n-propanol	0.000138	0.000173	0.000211	0.00025	0.00029	0.000336	0.00039	0.000453	0.000525
in toluene	7.6e-05	9.9e-05	0.000123	0.000146	0.00017	0.000197	0.000225	0.000258	0.000291

From BigSolDB 2.1
